Data from patent US20230255966A1, “A COMBINATION OF A CBP/P300 BROMODOMAIN INHIBITOR AND AN EGFR INHIBITOR FOR USE IN TREATING EGFR-MUTANT NSCLC” (TOLREMO THERAPEUTICS AG, priority 2020, published 2023).
Values belong to the compound of their own block, whether it stands above or below them.

What was measured:
CBP bromodomain = molecular target: T1, CBP bromodomain (Homo sapiens, UniProt Q92793); assay: CBP bromodomain binding assay (TR-FRET); conditions: class symbols
T1 construct: purchased Cayman chemicals 600850
Protocol: Compounds solutions of 10 mM in DMSO were pre-diluted in DSMO to 25× stock solutions in DMSO. These were then diluted down to 4× in Assay buffer. A dilution series in Assay buffer was performed keeping the DMSO concentration stable. 5 μl compound in assay buffer was transferred into the assay plate (provided by assay kit) and the TR-FRET assay Cayman chemicals; 600850) was performed using the manufactor's instructions. […] The TR-FRET ratio was calculated by dividing 670 nm emission by 620 nm emission.

HCC827 cells [1] = assay: Cell counting by nuclear fluorescent staining (Hoechst33342); assay type: cell-based
Protocol: Several plates were seeded, as for each time point of cell counting one plate was fixed and stained for analysis. […] Cell cultivation was continued until time of fixation and analysis for each plate. For extended time-points, medium and drugs were replenished twice weekly.
At the given time plates were washed 3 times with PBS and cells fixed with 80 μl 4% PFA for 10 min, RT. After 3 wash steps with PBS cells were stained with 10 μg/ml Hoechst33342 (Thermo Scientific H12492) in 100 μl PBS for 2 h, RT, dark. After 3× PBS washing-steps, Hoechst33342 signals were acquired on in an automated imaging mode using a Zeiss Apotome with motorized X/Y stage and a 5× objective. Image analysis and determination of Hoechst33342 spots (nuclei) was done using ImageJ. Number of nuclei was plotted as function of time using GraphPad Prism.

HCC827 cells [2] = assay: Label-free determination of cell proliferation (CELIGO); assay type: cell-based; conditions: HCC827, combined with 100 nM osimertinib, 21 days (FIG. 9)
BRPF3 = molecular target: T2, BRPF3 (Homo sapiens, UniProt Q9ULD4); assay: BROMOscan BromoKdMAX; assay type: binding
T2 construct: T7 phage strains displaying bromodomains were grown in parallel; purchased DiscoverX; host or cells: T7 phage in E. coli host derived from BL21
Protocol: (§1) A BromoKdMAX was performed at DiscoverX.
(§2) The assay principle is the following: BROMOscan™ is a novel industry leading platform for identifying small molecule bromodomain inhibitors. Based on proven KINOMEscan™ technology, BRO-MOscan™ employs a proprietary ligand binding site-directed competition assay to quantitatively measure interactions between test compounds and bromodomains. This robust and reliable assay panel is suitable for high throughput screening and delivers quantitative ligand binding data to facilitate the identification and optimization of potent and selective small molecule bromodomain inhibitors.
(§3) The assay was conducted as follows: For the Bromodomain assays, T7 phage strains displaying bromodomains were grown in parallel in 24-well blocks in an E. coli host derived from the BL21 strain. E. coli were grown to log-phase and infected with T7 phage from a frozen stock (multiplicity of infection=0.4) and incubated with shaking at 32° C. until lysis (90-150 minutes). The lysates were centrifuged (5,000×g) and filtered (0.2 μm) to remove cell debris. […] The liganded beads were blocked with excess biotin and washed with blocking buffer (SeaBlock (Pierce), 1% BSA, 0.05% Tween 20, 1 mM DTT) to remove unbound ligand and to reduce non-specific phage binding. […] Test compounds were prepared as 1000× stocks in 100% DMSO. Kds were determined using an 11-point 3-fold compound dilution series with one DMSO control point. […] The compounds were then diluted directly into the assays such that the final concentration of DMSO was 0.09%. All reactions performed in polypropylene 384-well plates. Each was a final volume of 0.02 ml. […] The bromodomain concentration in the eluates was measured by qPCR.

PBRM1(5) = molecular target: T3, PBRM1(5) (Homo sapiens, UniProt Q86U86); assay: BROMOscan BromoKdMAX; assay type: binding
T3 construct: T7 phage strains displaying bromodomains were grown in parallel; purchased DiscoverX (BROMOscan / BromoKdMAX service); host or cells: T7 phage in E. coli host derived from BL21
Protocol: as §1, §2, §3

BAZ2A = molecular target: T4, BAZ2A (Homo sapiens, UniProt Q9UIF9); assay: BROMOscan BromoKdMAX; assay type: binding
T4 construct: T7 phage strains displaying bromodomains were grown in parallel; purchased DiscoverX; host or cells: T7 phage in E. coli host derived from BL21
Protocol: as §1, §2, §3

PBRM1(2) = molecular target: T5, PBRM1(2) (Homo sapiens, UniProt Q86U86); assay: BROMOscan BromoKdMAX; assay type: binding
T5 construct: T7 phage strains displaying bromodomains were grown in parallel; purchased DiscoverX (BROMOscan / BromoKdMAX service); host or cells: T7 phage in E. coli host derived from BL21
Protocol: as §1, §2, §3

BAZ2B = molecular target: T6, BAZ2B (Homo sapiens, UniProt Q9UIF8); assay: BROMOscan BromoKdMAX; assay type: binding
T6 construct: T7 phage strains displaying bromodomains were grown in parallel; purchased DiscoverX; host or cells: T7 phage in E. coli host derived from BL21
Protocol: as §1, §2, §3

TRIM33(PHD, Bromo.) = molecular target: T7, TRIM33(PHD, Bromo.) (Homo sapiens, UniProt Q9UPN9); assay: BROMOscan BromoKdMAX; assay type: binding
T7 construct: TRIM33(PHD, Bromo.)
Protocol: as §1, §2, §3

FALZ = molecular target: T8, FALZ (Homo sapiens, UniProt Q12830); assay: BROMOscan BromoKdMAX; assay type: binding
T8 construct: T7 phage strains displaying bromodomains were grown in parallel; purchased DiscoverX (BROMOscan / BromoKdMAX service); host or cells: T7 phage in E. coli host derived from BL21
Protocol: as §1, §2, §3

GCN5L2 = molecular target: T9, GCN5L2 (Homo sapiens, UniProt Q92830); assay: BROMOscan BromoKdMAX; assay type: binding
T9 construct: T7 phage strains displaying bromodomains were grown in parallel; purchased DiscoverX (BROMOscan / BromoKdMAX service); host or cells: T7 phage in E. coli host derived from BL21
Protocol: as §1, §2, §3

ATAD2B = molecular target: T10, ATAD2B (Homo sapiens, UniProt Q9ULI0); assay: BROMOscan BromoKdMAX; assay type: binding
T10 construct: T7 phage strains displaying bromodomains were grown in parallel; purchased DiscoverX; host or cells: T7 phage in E. coli host derived from BL21
Protocol: as §1, §2, §3

BRD1 = molecular target: T11, BRD1 (Homo sapiens, UniProt O95696); assay: BROMOscan BromoKdMAX; assay type: binding
T11 construct: T7 phage strains displaying bromodomains were grown in parallel; purchased DiscoverX; host or cells: T7 phage in E. coli host derived from BL21
Protocol: as §1, §2, §3

SMARCA2 = molecular target: T12, SMARCA2 (Homo sapiens, UniProt P51531); assay: BROMOscan BromoKdMAX; assay type: binding
T12 construct: T7 phage strains displaying bromodomains were grown in parallel; purchased DiscoverX (BROMOscan / BromoKdMAX service); host or cells: T7 phage in E. coli host derived from BL21
Protocol: as §1, §2, §3

ATAD2A = molecular target: T13, ATAD2A (Homo sapiens, UniProt Q6PL18); assay: BROMOscan BromoKdMAX; assay type: binding
T13 construct: T7 phage strains displaying bromodomains were grown in parallel; purchased DiscoverX; host or cells: T7 phage in E. coli host derived from BL21
Protocol: as §1, §2, §3

SMARCA4 = molecular target: T14, SMARCA4 (Homo sapiens, UniProt P51532); assay: BROMOscan BromoKdMAX; assay type: binding
T14 construct: T7 phage strains displaying bromodomains were grown in parallel; purchased DiscoverX (BROMOscan / BromoKdMAX service); host or cells: T7 phage in E. coli host derived from BL21
Protocol: as §1, §2, §3

NCI-H1975 xenografts = assay: NCI-H1975 xenograft tumor growth; assay type: in vivo, NMRI-Nude mice
Protocol: Tumor volume was measured using a manual caliper two to three times a week. The tumor volume was calculated using the formula: lager tumor diameter x square of the smaller tumor diameter divided by 2. Based on a linear fit of the mean tumor volumes the slopes of the curves were compared by regression analysis (two-tailed).
(§4) The response was determined by comparing tumor volume change at time t to its baseline: % tumor volume change=ΔVolt=100%×((Vt−Vinitial)/Vinitial). The Best Response was the minimum value of ΔVolt for t≥10 d. For each time t, the average of ΔVolt from t=0 to t was also calculated. The BestAvgResponse is defined as the minimum value of this average for t≥10 d. This metric captures a combination of speed, strength and durability of response into a single value. […] Mice that were sacrificed because of an adverse event before they had completed 14 d on trial were removed from the data set.
as §4, with “ΔVolt for t≥6 d. For” for “ΔVolt for t≥10 d. For”

[3] = 2 mg/kg osimertinib in combination with 90 mg/kg Compound C

T14 sequence (P51532 1453-1564 limits assumed): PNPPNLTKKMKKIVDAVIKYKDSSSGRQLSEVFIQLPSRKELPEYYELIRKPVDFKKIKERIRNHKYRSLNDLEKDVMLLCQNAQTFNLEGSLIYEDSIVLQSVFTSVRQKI
T3 sequence (Q86U86 653-763 limits assumed): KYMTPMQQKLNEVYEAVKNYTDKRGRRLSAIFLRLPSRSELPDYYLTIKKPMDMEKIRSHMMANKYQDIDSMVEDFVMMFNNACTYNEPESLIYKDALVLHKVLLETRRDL
T5 sequence (Q86U86 177-287 limits assumed): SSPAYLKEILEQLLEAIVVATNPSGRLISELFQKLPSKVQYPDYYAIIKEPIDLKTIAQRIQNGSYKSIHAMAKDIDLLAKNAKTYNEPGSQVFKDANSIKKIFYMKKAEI
T4 sequence (Q9UIF9 1793-1897 limits assumed): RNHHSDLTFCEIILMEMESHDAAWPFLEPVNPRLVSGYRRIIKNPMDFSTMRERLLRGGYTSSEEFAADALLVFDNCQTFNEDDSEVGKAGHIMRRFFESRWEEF
T9 sequence (Q92830 728-832 limits assumed): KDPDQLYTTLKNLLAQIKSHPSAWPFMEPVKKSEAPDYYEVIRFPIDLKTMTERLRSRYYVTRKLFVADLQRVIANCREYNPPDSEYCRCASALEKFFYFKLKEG
T13 sequence (Q6PL18 980-1092 limits assumed): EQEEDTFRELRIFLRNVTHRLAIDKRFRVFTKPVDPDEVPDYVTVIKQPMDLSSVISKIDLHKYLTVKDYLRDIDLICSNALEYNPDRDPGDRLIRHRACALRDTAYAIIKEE
T2 sequence (Q9ULD4 589-693 limits assumed): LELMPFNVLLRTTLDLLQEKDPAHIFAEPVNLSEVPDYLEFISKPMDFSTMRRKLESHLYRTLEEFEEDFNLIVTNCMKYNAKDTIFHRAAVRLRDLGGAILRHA
T7 sequence (Q9UPN9 whole entry): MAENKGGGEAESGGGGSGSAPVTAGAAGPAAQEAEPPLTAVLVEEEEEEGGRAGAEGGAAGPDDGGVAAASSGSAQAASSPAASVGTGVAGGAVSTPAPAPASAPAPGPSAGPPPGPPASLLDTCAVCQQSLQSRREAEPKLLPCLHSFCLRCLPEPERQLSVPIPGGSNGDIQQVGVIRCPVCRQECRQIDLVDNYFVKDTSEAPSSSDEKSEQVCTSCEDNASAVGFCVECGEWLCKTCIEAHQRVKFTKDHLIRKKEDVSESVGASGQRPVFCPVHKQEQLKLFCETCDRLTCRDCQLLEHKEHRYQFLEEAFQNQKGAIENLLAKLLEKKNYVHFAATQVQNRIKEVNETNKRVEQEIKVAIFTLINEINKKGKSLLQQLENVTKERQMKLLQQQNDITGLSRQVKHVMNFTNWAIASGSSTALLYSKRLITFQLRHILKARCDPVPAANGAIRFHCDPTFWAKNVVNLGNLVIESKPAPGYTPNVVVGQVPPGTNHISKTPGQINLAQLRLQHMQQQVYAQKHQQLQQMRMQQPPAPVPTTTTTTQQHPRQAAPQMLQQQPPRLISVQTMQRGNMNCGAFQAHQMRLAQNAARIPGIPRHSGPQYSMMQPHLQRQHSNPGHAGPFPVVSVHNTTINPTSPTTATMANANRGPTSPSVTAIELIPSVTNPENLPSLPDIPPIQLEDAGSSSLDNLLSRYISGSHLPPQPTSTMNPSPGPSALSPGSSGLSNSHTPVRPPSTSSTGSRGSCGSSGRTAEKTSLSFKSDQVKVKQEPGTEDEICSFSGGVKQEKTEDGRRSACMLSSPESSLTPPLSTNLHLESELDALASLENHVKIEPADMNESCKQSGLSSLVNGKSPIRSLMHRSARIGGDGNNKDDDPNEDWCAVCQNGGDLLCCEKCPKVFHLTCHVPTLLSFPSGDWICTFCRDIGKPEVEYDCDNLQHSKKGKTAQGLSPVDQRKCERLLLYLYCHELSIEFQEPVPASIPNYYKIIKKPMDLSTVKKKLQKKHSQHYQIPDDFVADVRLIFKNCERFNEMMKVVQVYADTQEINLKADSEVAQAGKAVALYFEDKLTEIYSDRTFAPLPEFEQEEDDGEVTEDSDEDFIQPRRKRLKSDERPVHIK
T12 sequence (P51531 1378-1506 limits assumed): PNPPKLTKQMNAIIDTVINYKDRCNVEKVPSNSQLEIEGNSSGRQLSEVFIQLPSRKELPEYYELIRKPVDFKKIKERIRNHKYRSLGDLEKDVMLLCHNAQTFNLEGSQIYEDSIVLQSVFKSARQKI
T1 sequence (Q92793 1085-1192 limits assumed): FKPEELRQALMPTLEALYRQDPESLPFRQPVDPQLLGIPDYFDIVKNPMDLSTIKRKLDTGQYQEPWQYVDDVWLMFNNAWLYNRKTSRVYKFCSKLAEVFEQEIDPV
T10 sequence (Q9ULI0 951-1066 limits assumed): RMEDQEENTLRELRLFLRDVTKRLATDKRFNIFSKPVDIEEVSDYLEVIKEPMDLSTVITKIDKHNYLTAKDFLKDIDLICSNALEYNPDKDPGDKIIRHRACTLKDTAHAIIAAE
T6 sequence (Q9UIF8 2060-2164 limits assumed): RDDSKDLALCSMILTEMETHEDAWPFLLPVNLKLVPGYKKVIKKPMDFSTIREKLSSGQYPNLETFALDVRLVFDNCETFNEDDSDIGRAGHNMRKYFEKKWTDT
T11 sequence (O95696 562-666 limits assumed): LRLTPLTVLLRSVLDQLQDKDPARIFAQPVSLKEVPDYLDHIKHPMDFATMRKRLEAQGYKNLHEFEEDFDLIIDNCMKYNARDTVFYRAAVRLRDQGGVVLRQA

EC50 (CBP bromodomain): < 0.2 µM
Structure (SMILES): CC(=O)N1C[C@H](c2nc(Nc3ccnc(C)c3)cc(-c3cccnc3)n2)CC[C@@H]1C [Compound 00071, 1-((2S,5R)-2-methyl-5-(4-((2-methylpyridin-4-yl)amino)-6-(pyridin-3-yl)pyrimidin-2-yl)piperidin-1-yl)ethan-1-one]
Effect on cell proliferation as single agent (HCC827 cells [1]; absence of EGFR inhibitor (FIG. 3 left)): absence of an anti-proliferative effect
Anti-proliferative activity / re-growth in presence of Gefitinib (HCC827 cells [1]; in presence of 300 nM Gefitinib (FIG. 3)): potentiate the effect of the EGFR inhibitor

Structure (SMILES): CC(=O)N1C[C@H](c2nc(Nc3cccc(-c4cn(C)nn4)c3)cc(-c3cnccn3)n2)CC[C@@H]1C [Compound C, 1-((2S,5R)-2-methyl-5-(4-((3-(1-methyl-1H-1,2,3-triazol-4-yl)phenyl)amino)-6-(pyrazin-2-yl)pyrimidin-2-yl)piperidin-1-yl)ethan-1-one]
Development of drug resistance / re-growth (HCC827 cells [2]): prevent the development of drug resistance
Kd (BRPF3): > 10 µM
Kd (PBRM1(5)): > 10 µM
Kd (BAZ2A): > 10 µM
Kd (PBRM1(2)): > 10 µM
Kd (BAZ2B): > 10 µM
Kd (TRIM33(PHD, Bromo.)): > 10 µM
Kd (FALZ): > 10 µM
Kd (GCN5L2): > 10 µM
Kd (ATAD2B): > 10 µM
Kd (BRD1): > 10 µM
Kd (SMARCA2): > 10 µM
Kd (ATAD2A): > 10 µM
Kd (SMARCA4): > 10 µM
Response to therapy (NCI-H1975 xenografts; [3]): response to therapy is significantly increased
Slope of linear regression fit of mean tumor volumes over time (NCI-H1975 xenografts; [3]): −7.4
Tumor growth (slopes of mean tumor volume curves) versus osimertinib group (NCI-H1975 xenografts; 2 mg/kg osimertinib in combination with 90 mg/kg Compound C, daily, orally): significant difference
Tumor growth (slopes of mean tumor volume curves) versus vehicle (NCI-H1975 xenografts; 90 mg/kg Compound C single agent, daily, orally): No significant difference
